Biological target: T1, human OX2 receptor (Homo sapiens, UniProt O43614)
T1 construct: expressed in transfected cells
T1 sequence (O43614 1-444): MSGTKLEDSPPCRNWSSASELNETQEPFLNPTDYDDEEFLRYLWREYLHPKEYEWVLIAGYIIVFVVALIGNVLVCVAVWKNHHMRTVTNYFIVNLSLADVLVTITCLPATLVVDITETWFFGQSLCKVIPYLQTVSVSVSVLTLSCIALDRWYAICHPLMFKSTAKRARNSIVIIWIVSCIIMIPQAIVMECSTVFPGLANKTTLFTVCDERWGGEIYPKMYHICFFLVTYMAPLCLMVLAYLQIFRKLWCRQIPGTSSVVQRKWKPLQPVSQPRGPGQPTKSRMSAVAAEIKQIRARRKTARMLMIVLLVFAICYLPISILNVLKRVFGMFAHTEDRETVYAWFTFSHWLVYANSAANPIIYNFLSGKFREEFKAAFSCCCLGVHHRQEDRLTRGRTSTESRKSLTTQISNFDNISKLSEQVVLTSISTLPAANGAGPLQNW
Test: Measurement of orexin type 2 receptor agonist activity (calcium fluorescence, Fluo-4 AM, FDSS)
Format: cell-based
Details: compound at 3 μM; CHO cells forcibly expressing human OX2 receptor; DMSO = 0%, 10 nM orexin A (human) = 100%
In short: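 Agonist response is expressed as % of the fluorescence change given by 10 nM human orexin A, with DMSO as 0%, read over 1 min 40 s on FDSS after compound addition. Cells: stable human OX2 (1-444) CHO-K1 clones, dye-loaded with Fluo-4 AM plus probenecid in HEPES-buffered HBSS with 0.1% BSA.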

Row | OX2R agonist activity (3 μM, %) | SMILES
1 | 102% | CS(=O)(=O)N[C@@H]1CN(C2=NOC(c3ccc(F)c(F)c3-c3c(F)cccc3F)C2)C[C@@H]1F (stereo partly drawn) [Example 137, N-{(3R,4S)-4-fluoro-1-[5-(2′,5,6,6′-tetrafluoro[1,1′-biphenyl]-2-yl)-4,5-dihydro-1,2-oxazol-3-yl]pyrrolidin-3-yl}methanesulfonamide]
2 | 105% | CS(=O)(=O)N[C@@H]1CN(C2=NOC(c3c(F)cc(F)cc3-c3ncc(F)cc3F)C2)CC1(F)F (stereo partly drawn) [Example 138, N-[(3R)-1-{5-[2-(3,5-difluoropyridin-2-yl)-4,6-difluorophenyl]-4,5-dihydro-1,2-oxazol-3-yl}-4,4-difluoropyrrolidin-3-yl]methanesulfonamide]
3 | 94% | CS(=O)(=O)N[C@@H]1CN(C2=NOC(c3c(F)cc(F)cc3-c3ncc(F)cc3F)C2)C[C@@H]1F (stereo partly drawn) [Example 139, N-[(3R,4S)-1-{5-[2-(3,5-difluoropyridin-2-yl)-4,6-difluorophenyl]-4,5-dihydro-1,2-oxazol-3-yl}-4-fluoropyrrolidin-3-yl]methanesulfonamide]
4 | 89% | CS(=O)(=O)N[C@@H]1CN(C2=NOC(c3ccc(F)c(F)c3-c3c(F)cccc3F)C2)CC1(F)F (stereo partly drawn) [Example 140, N-{(3R)-4,4-difluoro-1-[5-(2′,5,6,6′-tetrafluoro[1,1′-biphenyl]-2-yl)-4,5-dihydro-1,2-oxazol-3-yl]pyrrolidin-3-yl}methanesulfonamide]
5 | 97% | CS(=O)(=O)N[C@@H]1CN(C2=NOC(c3c(F)cccc3-c3c(F)cccc3F)C2)C[C@@H]1F (stereo partly drawn) [Example 141, N-{(3R,4S)-4-fluoro-1-[5-(2′,3,6′-trifluoro[1,1′-biphenyl]-2-yl)-4,5-dihydro-1,2-oxazol-3-yl]pyrrolidin-3-yl}methanesulfonamide]
6 | 102% | CS(=O)(=O)N[C@@H]1CN(C2=NOC(CO)(c3ncc(Cl)cc3-c3c(F)cccc3F)C2)CC1(F)F (stereo partly drawn) [Example 142, N-[(3R)-1-{5-[5-chloro-3-(2,6-difluorophenyl)pyridin-2-yl]-5-(hydroxymethyl)-4,5-dihydro-1,2-oxazol-3-yl}-4,4-difluoropyrrolidin-3-yl]methanesulfonamide]
7 | 109% | CCS(=O)(=O)N[C@@H]1CN(C2=NOC(c3ncc(Cl)cc3-c3c(F)cccc3F)C2)CC1(F)F (stereo partly drawn) [Example 143, N-[(3R)-1-{5-[5-chloro-3-(2,6-difluorophenyl)pyridin-2-yl]-4,5-dihydro-1,2-oxazol-3-yl}-4,4-difluoropyrrolidin-3-yl]ethanesulfonamide]
8 | 98% | CS(=O)(=O)N[C@@H]1CN(C2=NOC(c3c(F)cc(F)cc3-c3c(F)cccc3F)C2)C[C@@H]1F (stereo partly drawn) [Example 144, N-{(3R,4S)-4-fluoro-1-[5-(2′,3,5,6′-tetrafluoro[1,1′-biphenyl]-2-yl)-4,5-dihydro-1,2-oxazol-3-yl]pyrrolidin-3-yl}methanesulfonamide]
9 | 105% | Cc1cc(F)c(C2CC(N3C[C@@H](NS(C)(=O)=O)C(F)(F)C3)=NO2)c(-c2c(F)cc(F)cc2F)c1 (stereo partly drawn) [Example 145, N-{(3R)-4,4-difluoro-1-[5-(2′,3,4′,6′-tetrafluoro-5-methyl[1,1′-biphenyl]-2-yl)-4,5-dihydro-1,2-oxazol-3-yl]pyrrolidin-3-yl}methanesulfonamide]
10 | 102% | Cc1cc(F)c(C2CC(N3C[C@@H](NS(C)(=O)=O)C(F)(F)C3)=NO2)c(-c2c(F)cccc2F)c1 (stereo partly drawn) [Example 146, N-{(3R)-4,4-difluoro-1-[5-(2′,3,6′-trifluoro-5-methyl[1,1′-biphenyl]-2-yl)-4,5-dihydro-1,2-oxazol-3-yl]pyrrolidin-3-yl}methanesulfonamide]
11 | 98% | CS(=O)(=O)N[C@@H]1CN(C2=NOC(CF)(c3ncc(F)cc3-c3c(F)cc(F)cc3F)C2)CC1(F)F (stereo partly drawn) [Example 147, N-[(3R)-4,4-difluoro-1-{5-(fluoromethyl)-5-[5-fluoro-3-(2,4,6-trifluorophenyl)pyridin-2-yl]-4,5-dihydro-1,2-oxazol-3-yl}pyrrolidin-3-yl]methanesulfonamide]
12 | 98% | O=S(=O)(CF)N[C@@H]1CN(C2=NOC(c3ncc(Cl)cc3-c3c(F)cccc3F)C2)CC1(F)F (stereo partly drawn) [Example 148, N-[(3R)-1-{5-[5-chloro-3-(2,6-difluorophenyl)pyridin-2-yl]-4,5-dihydro-1,2-oxazol-3-yl}-4,4-difluoropyrrolidin-3-yl]-1-fluoromethanesulfonamide]
13 | 95% | CS(=O)(=O)N[C@@H]1CN(C2=NOC(CF)(c3ncccc3-c3c(F)cccc3F)C2)CC1(F)F (stereo partly drawn) [Example 150, N-[(3R)-1-{5-[3-(2,6-difluorophenyl)pyridin-2-yl]-5-(fluoromethyl)-4,5-dihydro-1,2-oxazol-3-yl}-4,4-difluoropyrrolidin-3-yl]methanesulfonamide]
14 | 107% | CCS(=O)(=O)N[C@@H]1CN(C2=NOC(CF)(c3ncccc3-c3c(F)cccc3F)C2)CC1(F)F (stereo partly drawn) [Example 151, N-[(3R)-1-{5-[3-(2,6-difluorophenyl)pyridin-2-yl]-5-(fluoromethyl)-4,5-dihydro-1,2-oxazol-3-yl}-4,4-difluoropyrrolidin-3-yl]ethanesulfonamide]
15 | 107% | CC1(c2ncc(Cl)cc2-c2ncc(F)cc2F)CC(N2C[C@@H](NS(C)(=O)=O)C(F)(F)C2)=NO1 (stereo partly drawn) [Example 152, N-{(3R)-1-[5-(5′-chloro-3,5-difluoro[2,3′-bipyridin]-2′-yl)-5-methyl-4,5-dihydro-1,2-oxazol-3-yl]-4,4-difluoropyrrolidin-3-yl}methanesulfonamide]
16 | 96% | CS(=O)(=O)N[C@@H]1CN(C2=NOC(CF)(c3ncc(C(F)F)cc3-c3c(F)cccc3F)C2)CC1(F)F (stereo partly drawn) [Example 153, N-[(3R)-1-{5-[5-(difluoromethyl)-3-(2,6-difluorophenyl)pyridin-2-yl]-5-(fluoromethyl)-4,5-dihydro-1,2-oxazol-3-yl}-4,4-difluoropyrrolidin-3-yl]methanesulfonamide]
17 | 102% | Cc1cc(F)c(C2CC(N3C[C@@H](NS(C)(=O)=O)C(F)(F)C3)=NO2)c(-c2ncc(F)cc2F)c1 (stereo partly drawn) [Example 154, N-[(3R)-1-{5-[2-(3,5-difluoropyridin-2-yl)-6-fluoro-4-methylphenyl]-4,5-dihydro-1,2-oxazol-3-yl}-4,4-difluoropyrrolidin-3-yl]methanesulfonamide]
18 | 94% | CS(=O)(=O)N[C@@H]1CN(C2=NOC(c3c(F)cc(F)cc3-c3c(F)cccc3F)C2)CC1(F)F (stereo partly drawn) [Example 156, N-{(3R)-4,4-difluoro-1-[5-(2′,3,5,6′-tetrafluoro[1,1′-biphenyl]-2-yl)-4,5-dihydro-1,2-oxazol-3-yl]pyrrolidin-3-yl}methanesulfonamide]
19 | 92% | CS(=O)(=O)N[C@@H]1CN(C2=NOC(CF)(c3ncccc3-c3c(F)cc(F)cc3F)C2)CC1(F)F (stereo partly drawn) [Example 157, N-[(3R)-4,4-difluoro-1-{5-(fluoromethyl)-5-[3-(2,4,6-trifluorophenyl)pyridin-2-yl]-4,5-dihydro-1,2-oxazol-3-yl}pyrrolidin-3-yl]methanesulfonamide]
20 | 100% | CC1(c2ncc(F)cc2-c2c(F)cccc2F)CC(N2C[C@@H](NS(C)(=O)=O)C(F)(F)C2)=NO1 (stereo partly drawn) [Example 158, N-[(3R)-1-{5-[3-(2,6-difluorophenyl)-5-fluoropyridin-2-yl]-5-methyl-4,5-dihydro-1,2-oxazol-3-yl}-4,4-difluoropyrrolidin-3-yl]methanesulfonamide]
21 | 99% | CS(=O)(=O)N[C@@H]1CN(C2=NOC(c3c(F)ccc(F)c3-c3c(F)cccc3F)C2)C[C@@H]1F (stereo partly drawn) [Example 159, N-{(3R,4S)-4-fluoro-1-[5-(2′,3,6,6′-tetrafluoro[1,1′-biphenyl]-2-yl)-4,5-dihydro-1,2-oxazol-3-yl]pyrrolidin-3-yl}methanesulfonamide]
22 | 104% | CS(=O)(=O)N[C@@H]1CN(C2=NOC(c3c(F)cccc3-c3c(F)cccc3F)C2)CC1(F)F (stereo partly drawn) [Example 160, N-{(3R)-4,4-difluoro-1-[5-(2′,3,6′-trifluoro[1,1′-biphenyl]-2-yl)-4,5-dihydro-1,2-oxazol-3-yl]pyrrolidin-3-yl}methanesulfonamide]
23 | 103% | Cc1ccc(C2(C)CC(N3C[C@@H](NS(C)(=O)=O)C(F)(F)C3)=NO2)c(-c2ncc(F)cc2F)c1 (stereo partly drawn) [Example 161, N-[(3R)-1-{5-[2-(3,5-difluoropyridin-2-yl)-4-methylphenyl]-5-methyl-4,5-dihydro-1,2-oxazol-3-yl}-4,4-difluoropyrrolidin-3-yl]methanesulfonamide]
24 | 103% | O=S(=O)(CF)N[C@@H]1CN(C2=NO[C@](CF)(c3ncc(F)cc3-c3c(F)cccc3F)C2)C[C@@H]1F [Example 162, N-[(3R,4S)-1-{(5S)-5-[3-(2,6-difluorophenyl)-5-fluoropyridin-2-yl]-5-(fluoromethyl)-4,5-dihydro-1,2-oxazol-3-yl}-4-fluoropyrrolidin-3-yl]-1-fluoromethanesulfonamide]

Reference: patent US20240217957A1, “HETEROCYCLIC COMPOUND AND USE THEREOF” (TAKEDA PHARMACEUTICAL COMPANY LIMITED, priority 2022, published 2024)
